Measurements published in patent publication US10919916B2, “Boron-containing small molecules” (Bill & Melinda Gates Foundation, priority 2016, dated 2021).
Values after ≈ are worked out from the molar mass of the structure shown. Read-outs that look alike come from different tables or passages of the source.

What was measured:
Format in all cases: cell-based
[1] = tested on: Wolbachia pipientis in C6/36 cell line; assay: Anti-Wolbachia high-content assay; details: read-out: EC50 Wolbachia pipientis in C6/36 cell line
Experimental: After 15 minutes, all media was removed from each well and fresh media (no stain) was added. Imaging of each well was accomplished using a Perkin Elmer Operetta high-content imaging system. Five fields per well were imaged using a confocal 60× objective with the Fluorescein filter (excitation filter: 460-490 nm; emission filter: 500-550 nm). Images were analyzed using the Perkin Elmer Harmony software to score each intact cell on the basis of texture complexity of the cytoplasm. Full details can be found in: […]. et al, J. Biomol.

[2] = tested on: Streptococcus pneumoniae (ATCC 49619); assay: Antibacterial MIC assay (microbroth dilution, CLSI)
Summary of the method: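 CLSI broth microdilution: 2-fold compound dilutions in cation-adjusted Mueller-Hinton broth supplemented with 3% lysed horse blood for S. pneumoniae, inoculum 5×10^5 CFU/mL from a 0.5 McFarland direct colony suspension, with growth control.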

[3] = tested on: Staphylococcus aureus, MRSA (ATCC 33591); assay: as above; details: read-out: MIC Staphylococcus aureus, MRSA (ATCC 33591)
Summary of the method: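 Microbroth dilution per CLSI M07-A10/M100-S25 in cation-adjusted Mueller-Hinton broth, with 3% lysed horse blood added for S. pneumoniae. Inoculum from a 0.5 McFarland direct colony suspension, diluted to 5×10^5 CFU/mL in the well. Compounds were 2-fold serially diluted; MIC read against a growth control.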

[4] = C6/36 (wAlbB) cells, 7 days at 26° C., 50% reduction of Wolbachia
[5] = ATCC49619, microbroth dilution, 3% lysed horse blood, 35° C. for 16-20 hours, read-out: MIC Streptococcus pneumoniae (ATCC 49619)
[6] = microbroth dilution, cation-adjusted Mueller-Hinton broth, 35° C. for 16-20 hours

Row | Structure (SMILES) | EC50 [1, 4] [nM] | MIC [2, 5] [µg/mL] | MIC [3, 6] [µg/mL] | EC50 ([1]; C6/36, […]) [nM] | MIC ([2]; ATCC49619, read-out: MIC Streptococcus pneumoniae (ATCC 49619)) [µg/mL] | MIC [3] [µg/mL]
1 | C=C[C@]1(C)C[C@@H](OC(=O)COc2cc3c(c(C4CCN(C(=O)OC(C)(C)C)CC4)c2)COB3O)[C@]2(C)[C@H](C)CC[C@]3(CCC(=O)[C@H]32)[C@@H](C)[C@@H]1O [Compound 17, tert-butyl 4-(1-hydroxy-6-(2-(((3aR,4R,5R,7S,8S,9R,9aS,12R)-8-hydroxy-4,7,9,12-tetramethyl-3-oxo-7-vinyldecahydro-4,9a-propanocyclopenta[8]annulen-5-yl)oxy)-2-oxoethoxy)-1,3-dihydrobenzo[c][1,2]oxaborol-4-yl)piperidine-1-carboxylate] | 623 | < 0.25 | 0.5 to 2 (≈ 0.721 to 2.88 µM) |  |  | 
2 | C=C[C@]1(C)C[C@@H](OC(=O)COc2ccc3c(c2Cl)B(O)OC3CNC(=O)OC(C)(C)C)[C@]2(C)[C@H](C)CC[C@]3(CCC(=O)[C@H]32)[C@@H](C)[C@@H]1O (stereo partly drawn) [Compound 30, (3aR,4R,5R,7S,8S,9R,9aS,12R)-8-hydroxy-4,7,9,12-tetramethyl-3-oxo-7-vinyldecahydro-4,9a-propanocyclopenta[8]annulen-5-yl 2-((3-(((tert-butoxycarbonyl)amino)methyl)-7-chloro-1-hydroxy-1,3-dihydrobenzo[c][1,2]oxaborol-6-yl)oxy)acetate] |  |  |  | > 1000 | 4 to 32 (≈ 5.93 to 47.5 µM) | 0.5 to 2 (≈ 0.742 to 2.97 µM)
3 | C=C[C@]1(C)C[C@@H](OC(=O)COc2cc3c(cc2F)COB3O)[C@]2(C)[C@H](C)CC[C@]3(C[C@H](F)C(=O)[C@H]32)[C@@H](C)[C@@H]1O [Compound 40, (2S,3aR,4R,5R,7S,8S,9R,9aS,12R)-2-fluoro-8-hydroxy-4,7,9,12-tetramethyl-3-oxo-7-vinyldecahydro-4,9a-propanocyclopenta[8]annulen-5-yl 2-((5-fluoro-1-hydroxy-1,3-dihydrobenzo[c][1,2]oxaborol-6-yl)oxy)acetate] | 18 | 0.5 to 2 (≈ 0.915 to 3.66 µM) | < 0.25 |  |  | 
4 | C=C[C@]1(C)C[C@@H](OC(=O)COc2cc(CNC(=O)OC(C)(C)C)c3c(c2)B(O)OC3)[C@]2(C)[C@H](C)CC[C@]3(C[C@H](O)C(=O)[C@H]32)[C@@H](C)[C@@H]1O [Compound 41, (2S,3aR,4R,5R,7S,8S,9R,9aS,12R)-2,8-dihydroxy-4,7,9,12-tetramethyl-3-oxo-7-vinyldecahydro-4,9a-propanocyclopenta[8]annulen-5-yl 2-((4-(((tert-butoxycarbonyl)amino)methyl)-1-hydroxy-1,3-dihydrobenzo[c][1,2]oxaborol-6-yl)oxy)acetate] | 625 | 0.5 to 2 (≈ 0.763 to 3.05 µM) | 0.5 to 2 (≈ 0.763 to 3.05 µM) |  |  | 
5 | C=C[C@]1(C)C[C@@H](OC(=O)COc2ccc3c(c2)B(O)OC3CC(=O)O)[C@]2(C)[C@H](C)CC[C@]3(CCC(=O)[C@H]32)[C@@H](C)[C@@H]1O (stereo partly drawn) [Compound 25, 2-(1-hydroxy-6-(2-(((3aR,4R,5R,7S,8S,9R,9aS,12R)-8-hydroxy-4,7,9,12-tetramethyl-3-oxo-7-vinyldecahydro-4,9a-propanocyclopenta[8]annulen-5-yl)oxy)-2-oxoethoxy)-1,3-dihydrobenzo[c][1,2]oxaborol-3-yl)acetic acid] | > 1000 | 0.5 to 2 (≈ 0.88 to 3.52 µM) | 0.5 to 2 (≈ 0.88 to 3.52 µM) |  |  | 
6 | C=C[C@]1(C)C[C@@H](OC(=O)COc2ccc3c(c2F)B(O)OC3)[C@]2(C)[C@H](C)CC[C@]3(C[C@H](O)C(=O)[C@H]32)[C@@H](C)[C@@H]1O [Compound 36, (2S,3aR,4R,5R,7S,8S,9R,9aS,12R)-2,8-dihydroxy-4,7,9,12-tetramethyl-3-oxo-7-vinyldecahydro-4,9a-propanocyclopenta[8]annulen-5-yl 2-((7-fluoro-1-hydroxy-1,3-dihydrobenzo[c][1,2]oxaborol-6-yl)oxy)acetate] | 193 | 0.5 to 2 (≈ 0.918 to 3.67 µM) | < 0.25 |  |  | 
7 | C=C[C@]1(C)C[C@@H](OC(=O)COc2ccc3c(c2)B(O)OC3)[C@]2(C)[C@H](C)CC[C@]3(C[C@H](O)C(=O)[C@H]32)[C@@H](C)[C@@H]1O [Compound 35, (2S,3aR,4R,5R,7S,8S,9R,9aS,12R)-2,8-dihydroxy-4,7,9,12-tetramethyl-3-oxo-7-vinyldecahydro-4,9a-propanocyclopenta[8]annulen-5-yl 2-((1-hydroxy-1,3-dihydrobenzo[c][1,2]oxaborol-6-yl)oxy)acetate] | 30 | 0.5 to 2 (≈ 0.95 to 3.8 µM) | < 0.25 |  |  | 

Second part, led by results:

Row | EC50 [1, 4] [nM] | MIC [2, 5] [µg/mL] | MIC [3, 6] [µg/mL] | Structure (SMILES) | EC50 ([1]; C6/36, […]) [nM] | MIC ([2]; ATCC49619, read-out: MIC Streptococcus pneumoniae (ATCC 49619)) [µg/mL] | MIC [3] [µg/mL]
8 | 3 | 0.5 to 2 (≈ 0.838 to 3.35 µM) | < 0.25 | C=C[C@]1(C)C[C@@H](OC(=O)COc2ccc3c(c2)B(O)N(C(=O)OC)N=C3)[C@]2(C)[C@H](C)CC[C@]3(C[C@H](O)C(=O)[C@H]32)[C@@H](C)[C@@H]1O [Compound 90, Methyl 7-(2-(((2S,3aR,4R,5R,7S,8S,9R,9aS,12R)-2,8-dihydroxy-4,7,9,12-tetramethyl-3-oxo-7-vinyldecahydro-4,9a-propanocyclopenta[8]annulen-5-yl)oxy)-2-oxoethoxy)-1-hydroxybenzo[d][1,2,3]diazaborinine-2(1H)-carboxylate] |  |  | 
9 | 3 | 0.5 to 2 (≈ 0.835 to 3.34 µM) | < 0.25 | C=C[C@]1(C)C[C@@H](OC(=O)COc2ccc3c(c2)B(O)N(C(=O)OC)N=C3)[C@]2(C)[C@H](C)CC[C@]3(C[C@H](F)C(=O)[C@H]32)[C@@H](C)[C@@H]1O [Compound 92, Methyl 7-(2-(((2S,3aR,4R,5R,7S,8S,9R,9aS,12R)-2-fluoro-8-hydroxy-4,7,9,12-tetramethyl-3-oxo-7-vinyldecahydro-4,9a-propanocyclopenta[8]annulen-5-yl)oxy)-2-oxoethoxy)-1-hydroxybenzo[d][1,2,3]diazaborinine-2(1H)-carboxylate] |  |  | 
10 | 4 | < 0.25 | < 0.25 | C=C[C@]1(C)C[C@@H](OC(=O)COc2ccc3c(c2)B(O)NN=C3)[C@]2(C)[C@H](C)CC[C@]3(C[C@H](F)C(=O)[C@H]32)[C@@H](C)[C@@H]1O [Compound 74, (2S,3aR,4R,5R,7S,8S,9R,9aS,12R)-2-fluoro-8-hydroxy-4,7,9,12-tetramethyl-3-oxo-7-vinyldecahydro-4,9a-propanocyclopenta[8]annulen-5-yl 2-((1-hydroxy-1,2-dihydrobenzo[d][1,2,3]diazaborinin-7-yl)oxy)acetate] |  |  | 
11 | 56 | 0.5 to 2 (≈ 0.955 to 3.82 µM) | < 0.25 | C=C[C@]1(C)C[C@@H](OC(=O)NC(=O)c2ccc3c(c2)B(O)OC3)[C@]2(C)[C@H](C)CC[C@]3(CCC(=O)[C@H]32)[C@@H](C)[C@@H]1O [Compound 58, (3aR,4R,5R,7S,8S,9R,9aS,12R)-8-hydroxy-4,7,9,12-tetramethyl-3-oxo-7-vinyldecahydro-4,9a-propanocyclopenta[8]annulen-5-yl (1-hydroxy-1,3-dihydrobenzo[c][1,2]oxaborole-6-carbonyl)carbamate] |  |  | 
12 | 12 | < 0.25 | 0.5 to 2 (≈ 0.929 to 3.71 µM) | C=C[C@]1(C)C[C@@H](OC(=O)COc2ccc3c(c2)B(O)NN=C3)[C@]2(C)[C@H](C)CC[C@]3(C[C@H](O)C(=O)[C@H]32)[C@@H](C)[C@@H]1O [Compound 70, (2S,3aR,4R,5R,7S,8S,9R,9aS,12R)-2,8-dihydroxy-4,7,9,12-tetramethyl-3-oxo-7-vinyldecahydro-4,9a-propanocyclopenta[8]annulen-5-yl 2-((1-hydroxy-1,2-dihydrobenzo[d][1,2,3]diazaborinin-7-yl)oxy)acetate] |  |  | 
13 | > 1000 | 0.5 to 2 (≈ 0.786 to 3.14 µM) | 0.5 to 2 (≈ 0.786 to 3.14 µM) | C=C[C@]1(C)C[C@@H](OC(=O)COc2ccc3c(c2F)B(O)N(S(C)(=O)=O)N=C3)[C@]2(C)[C@H](C)CC[C@]3(C[C@H](F)C(=O)[C@H]32)[C@@H](C)[C@@H]1O [Compound 76, (2S,3aR,4R,5R,7S,8S,9R,9aS,12R)-2-fluoro-8-hydroxy-4,7,9,12-tetramethyl-3-oxo-7-vinyldecahydro-4,9a-propanocyclopenta[8]annulen-5-yl 2-((8-fluoro-1-hydroxy-2-(methylsulfonyl)-1,2-dihydrobenzo[d][1,2,3]diazaborinin-7-yl)oxy)acetate] |  |  | 
14 | > 1000 | 0.5 to 2 (≈ 0.864 to 3.46 µM) | 4 to 32 (≈ 6.91 to 55.3 µM) | C=C[C@]1(C)C[C@@H](OC(=O)CNc2ccc3c(c2)B(O)OC32CCNCC2)[C@]2(C)[C@H](C)CC[C@]3(CCC(=O)[C@H]32)[C@@H](C)[C@@H]1O [Compound 53, (3aR,4R,5R,7S,8S,9R,9aS,12R)-8-hydroxy-4,7,9,12-tetramethyl-3-oxo-7-vinyldecahydro-4,9a-propanocyclopenta[8]annulen-5-yl (1-hydroxy-1H-spiro[benzo[c][1,2]oxaborole-3,4′-piperidin]-6-yl)glycinate] |  |  | 
15 | 36 | < 0.25 | 0.5 to 2 (≈ 0.905 to 3.62 µM) | C=C[C@]1(C)C[C@@H](OC(=O)COc2ccc3c(c2)B(O)N(C)N=C3)[C@]2(C)[C@H](C)CC[C@]3(C[C@H](O)C(=O)[C@H]32)[C@@H](C)[C@@H]1O [Compound 82, (2S,3aR,4R,5R,7S,8S,9R,9aS,12R)-2,8-dihydroxy-4,7,9,12-tetramethyl-3-oxo-7-vinyldecahydro-4,9a-propanocyclopenta[8]annulen-5-yl 2-((1-hydroxy-2-methyl-1,2-dihydrobenzo[d][1,2,3]diazaborinin-7-yl)oxy)acetate] |  |  | 
